Laboratory results reported in ChEMBL document CHEMBL1201862, “PubChem BioAssay data set” (2004).
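Compound exposure: 48 hours, 5 concentrations, 96-well plates. GI50 marks 50% less growth.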 The source made the active and inactive calls. No stated cut-off is given here; in the data, active = GI50 up to about 1.1 µM and inactive = higher.

What was measured:
Experiment in all cases: NCI anticancer screen, dose series, 48 h
[1] = system: SW-620
[2] = system: M19-MEL
[3] = system: A549
[4] = system: UACC-257
[5] = system: CAKI-1
[6] = system: MOLT-4
[7] = system: SN12C
[8] = system: IGROV-1
[9] = system: HOP-62
[10] = system: NCI-H23
[11] = system: U-251
[12] = system: UO-31
[13] = system: OVCAR-3
[14] = system: HCT-15
[15] = system: SK-MEL-2
[16] = system: NCI-H226
[17] = system: SK-MEL-28
[18] = system: SF-268
[19] = system: A498
[20] = system: PC-3

O=c1c2cc3c(cc2c2cccc4c2n1CCC4)OCO3
GI50 [1]: 29.4 µM (inactive)
GI50 [2]: 86.7 µM (inactive)
GI50 [3]: 51.6 µM (inactive)
GI50 [4]: 33.1 µM (inactive)
GI50 [5]: 78.9 µM (inactive)
GI50 [6]: 24.6 µM (inactive)
GI50 [7]: 36.8 µM (inactive)
GI50 [8]: 36.1 µM (inactive)
GI50 [9]: 56.8 µM (inactive)
GI50 [10]: 22.4 µM (inactive)
GI50 [11]: 23.1 µM (inactive)
GI50 [12]: 22.4 µM (inactive)
GI50 [13]: 61.2 µM (inactive)
GI50 [14]: 36.7 µM
GI50 [15]: > 100 µM (inactive)
GI50 [16]: > 100 µM (inactive)
GI50 [17]: 69.5 µM (inactive)

N#CC(C(=N/NC(N)=S)/C(=N\NC(N)=S)C(C#N)c1ccccc1)c1ccccc1 (configuration not stated)
GI50 [1]: > 10 µM (inactive)
GI50 [2]: > 10 µM (inactive)
GI50 [3]: > 10 µM (inactive)
GI50 [4]: > 10 µM (inactive)
GI50 [6]: > 10 µM (inactive)
GI50 [7]: > 10 µM (inactive)
GI50 [9]: > 10 µM (inactive)
GI50 [10]: > 10 µM (inactive)
GI50 [11]: > 10 µM (inactive)
GI50 [18]: > 10 µM (inactive)
GI50 [12]: > 10 µM (inactive)
GI50 [13]: > 10 µM (inactive)
GI50 [14]: > 10 µM
GI50 [15]: > 10 µM (inactive)
GI50 [19]: > 10 µM (inactive)
GI50 [16]: > 10 µM (inactive)
GI50 [17]: > 10 µM (inactive)

C/C(=N\NC(=S)N1CCCCCC1)c1nccnc1C
GI50 [1]: < 0.01 µM (active)
GI50 [2]: 0.174 µM (active)
GI50 [3]: 0.0331 µM (active)
GI50 [4]: < 0.01 µM (active)
GI50 [5]: 0.155 µM (active)
GI50 [6]: 0.0658 µM (active)
GI50 [7]: 0.285 µM (active)
GI50 [8]: < 0.01 µM (active)
GI50 [9]: 35.3 µM (inactive)
GI50 [10]: < 0.01 µM (active)
GI50 [11]: 0.2 µM (active)
GI50 [18]: 0.176 µM (active)
GI50 [13]: < 0.01 µM (active)
GI50 [14]: < 0.01 µM
GI50 [15]: 12.8 µM (inactive)
GI50 [19]: 1.58 µM (inactive)
GI50 [17]: 0.106 µM (active)

C=CCc1cccc(C(=O)/C=C(O)/C=C/c2ccccc2Cl)c1O
GI50 [1]: 8.43 µM (inactive)
GI50 [20]: 8.38 µM (inactive)
GI50 [3]: 8.91 µM (inactive)
GI50 [4]: 13.8 µM (inactive)
GI50 [5]: 42.6 µM (inactive)
GI50 [6]: 3.96 µM (inactive)
GI50 [7]: 25.6 µM (inactive)
GI50 [8]: 0.352 µM (active)
GI50 [9]: 16.6 µM (inactive)
GI50 [10]: 6.12 µM (inactive)
GI50 [11]: 5.66 µM (inactive)
GI50 [18]: 20.5 µM (inactive)
GI50 [12]: 9.18 µM (inactive)
GI50 [13]: 16.6 µM (inactive)
GI50 [14]: 8.39 µM
GI50 [15]: 10.4 µM (inactive)
GI50 [19]: 21.2 µM (inactive)
GI50 [16]: 18.8 µM (inactive)
GI50 [17]: 10.5 µM (inactive)

Cc1ccc(Cl)c2c1NC(=O)/C2=N\Nc1ccccc1[N+](=O)[O-]
GI50 [1]: 27 µM (inactive)
GI50 [20]: 27.7 µM (inactive)
GI50 [3]: 83 µM (inactive)
GI50 [4]: 82.2 µM (inactive)
GI50 [5]: > 100 µM (inactive)
GI50 [6]: 37.3 µM (inactive)
GI50 [7]: > 100 µM (inactive)
GI50 [8]: 6.53 µM (inactive)
GI50 [9]: 56.1 µM (inactive)
GI50 [10]: 47.6 µM (inactive)
GI50 [11]: 31.6 µM (inactive)
GI50 [18]: 45.8 µM (inactive)
GI50 [12]: 34.8 µM (inactive)
GI50 [13]: 27.3 µM (inactive)
GI50 [14]: 37.8 µM
GI50 [15]: > 100 µM (inactive)
GI50 [19]: > 100 µM (inactive)
GI50 [16]: > 100 µM (inactive)
GI50 [17]: > 100 µM (inactive)

CCCCCCCCCCCCCC(=O)NCC(OCC)OCC
GI50 [1]: > 100 µM (inactive)
GI50 [2]: > 100 µM (inactive)
GI50 [3]: > 100 µM (inactive)
GI50 [4]: > 100 µM (inactive)
GI50 [7]: > 100 µM (inactive)
GI50 [8]: > 100 µM (inactive)
GI50 [9]: > 100 µM (inactive)
GI50 [10]: > 100 µM (inactive)
GI50 [11]: > 100 µM (inactive)
GI50 [18]: > 100 µM (inactive)
GI50 [12]: > 100 µM (inactive)
GI50 [13]: > 100 µM (inactive)
GI50 [14]: > 100 µM
GI50 [15]: > 100 µM (inactive)
GI50 [19]: > 100 µM (inactive)
GI50 [16]: > 100 µM (inactive)
GI50 [17]: > 100 µM (inactive)

CCOC(=O)CNC(SC)=C(C#N)C#N
GI50 [1]: > 100 µM (inactive)
GI50 [2]: > 100 µM (inactive)
GI50 [3]: > 100 µM (inactive)
GI50 [4]: > 100 µM (inactive)
GI50 [5]: > 100 µM (inactive)
GI50 [6]: > 100 µM (inactive)
GI50 [7]: > 100 µM (inactive)
GI50 [8]: > 100 µM (inactive)
GI50 [9]: > 100 µM (inactive)
GI50 [10]: > 100 µM (inactive)
GI50 [11]: > 100 µM (inactive)
GI50 [18]: > 100 µM (inactive)
GI50 [12]: 36.7 µM (inactive)
GI50 [13]: > 100 µM (inactive)
GI50 [14]: > 100 µM
GI50 [19]: > 100 µM (inactive)
GI50 [16]: > 100 µM (inactive)

CCCNC(=S)N/C=C1/C(=O)Oc2ccccc2C1=O
GI50 [1]: > 100 µM (inactive)
GI50 [20]: > 100 µM (inactive)
GI50 [3]: > 100 µM (inactive)
GI50 [4]: > 100 µM (inactive)
GI50 [5]: > 100 µM (inactive)
GI50 [6]: > 100 µM (inactive)
GI50 [7]: > 100 µM (inactive)
GI50 [8]: 89.9 µM (inactive)
GI50 [9]: > 100 µM (inactive)
GI50 [10]: > 100 µM (inactive)
GI50 [11]: > 100 µM (inactive)
GI50 [18]: > 100 µM (inactive)
GI50 [12]: 28.4 µM (inactive)
GI50 [13]: > 100 µM (inactive)
GI50 [14]: > 100 µM
GI50 [15]: 75.3 µM (inactive)
GI50 [19]: 88.9 µM (inactive)
GI50 [16]: > 100 µM (inactive)
GI50 [17]: > 100 µM (inactive)
